Experimental findings from patent US20240043435A1, “TYK-2 INHIBITOR” (BEIGENE, LTD., priority 2020, published 2024) are described below.

Read-outs that look alike come from different tables or passages of the source. Where only a bound is given, the exact number is not on record here.

Assay [1] has as its system JAK2, TYK2/p-STAT4 (Tyr693) activated by IL-12 in NK-92 cell line. The assay can be described thus: IL-12-JAK2, TYK2/p-STAT4 (Tyr693) inhibition IC50 cellular assay. It counts as cell-based. To be noted: for IC50: read-out: pSTAT4/IL-12 IC50; for Selectivity fold (TYK2/JAK2): pSTAT5/GM-CSF IC50 vs pSTAT4/IL-12 IC50. An excerpt: Assay C: IL-12-JAK2, TYK2/p-STAT4 (Tyr693) Inhibition IC50 Cellular Assay
To evaluate the inhibition effect of compounds disclosed herein on JAK2, TYK2/p-STAT4 (Tyr693) activated by IL-12 in NK-92 cell line, NK-92 cells were collected and washed 3 times by DPBS and resuspended in MEM-α (GIBCO, Cat #12561056) with 10% FBS (Gibco, Cat #10099, Lot #1891605), without IL-2 (R&D systems, Cat #202-IL), starved overnight. Cells were collected and resuspended in 1640 medium (phenol red free, Gibco, Cat #11835-030) with 0.1% BSA, and 12.5 μl/5×10^4/well cell suspension were seeded to the 96-well plate (Corning, Cat #3799). Then cells were treated with compounds diluted in 0.2% DMSO 1640 medium, at 37° C., 1 h. Dilution is done according to the following protocol: (1) make 500× compounds solution in DMSO from 5 mM by 4-fold dilution, total 8 doses were included; (3) make 2× compounds solution in assay medium by transferring 0.5 μl serial 500× stock solution into 125 μl assay medium; (4) 15 μl of 2× serial solution is added to cells and incubate at 37° C. for 1 h, the final compound conc. is 10000, 2500, 625, 156.25, 39, 9.8, 2.4 and 0.61 nM, respectively. After 1 h, cells were treated with 2.5 μl medium containing IL-12 at 37° C. (R&D systems, Cat #219-IL-005, final conc. 40 ng/ml), 30 min. Following cells were lysed with 7.5 μl lysis buffer at RT, shaking on shaker for 1 h. 10 μL of cell lysate were transferred to a PE 384-well Proxiplate detection plate, and 5 μL of pre-mixed Alphascreen beads were added to each well. Covered the plate with a plate sealer, span 1000 rpm for 1 min, mix, Incubated overnight at room temperature. Read on BMG PheraStar with Alphascreen protocol. IC 50 values were calculated by fitting dependent data to the four-parameter logistic model using dotmatics software. The assay was performed by using AlphaLISA SureFire Ultra p-STAT4 (Tyr693) Assay Kit—High Volume (PE, Cat #ALSU-PST4-A-HV).

In assay [2] the target is T1, TYK2-JH2 (aa 575-869, in-house) protein (Homo sapiens, UniProt P29597).
T1 construct: TYK2-JH2 (aa 575-869, in-house) protein; made in house
T1 sequence (P29597 575-869): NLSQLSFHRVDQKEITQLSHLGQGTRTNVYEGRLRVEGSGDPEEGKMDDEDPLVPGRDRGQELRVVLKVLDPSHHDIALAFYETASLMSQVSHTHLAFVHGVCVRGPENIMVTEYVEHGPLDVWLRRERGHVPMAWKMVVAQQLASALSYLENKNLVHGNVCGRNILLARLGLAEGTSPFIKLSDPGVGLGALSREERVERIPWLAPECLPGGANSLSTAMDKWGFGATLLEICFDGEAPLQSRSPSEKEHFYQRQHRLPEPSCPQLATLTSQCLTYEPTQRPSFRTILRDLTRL
The assay can be described thus: TYK2-JH2 biochemical assay (HTRF probe displacement). The assay is classed as binding. To be noted: Biochemical assay; read-out: TYK2-JH2 IC50. In short, it runs like this: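 Recombinant TYK2-JH2 (0.2 nM) was pre-incubated 0.5 h at room temperature with compounds (10 doses, 5-fold dilution; 500× DMSO stocks from 500 uM) in 20 mM HEPES pH 7.5, 10 mM MgCl2, 0.005% BSA, 2 mM DTT, 0.015% Brij-35. Probe displacement was read by HTRF (ex337, em620/665 nm); IC50 from four-parameter logistic fit.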

A further assay has as its system pSTAT5/GM-CSF. The assay can be described thus: pSTAT5/GM-CSF cellular assay (JAK2 selectivity). The assay is classed as cell-based. Conditions: for Selectivity fold (TYK2/JAK2): pSTAT5/GM-CSF IC50 over pSTAT4/IL-12 IC50.

`CCOc1cc(Nc2cc(NC(C)=O)ncc2-c2cc(C)n(C)n2)nc(S(C)(=O)=O)c1` [Example N7, N-(5-(1,5-dimethyl-1H-pyrazol-3-yl)-4-((4-ethoxy-6-(methylsulfonyl)pyridin-2-yl)amino)pyridin-2-yl)acetamide]: the IC50 in assay [1] (NK92, Cellular assay) was 1.43 nM; in assay [2], 0.024 nM; in the assay on pSTAT5/GM-CSF, > 10000 nM. Further, in the assay on pSTAT5/GM-CSF, the “Selectivity fold (TYK2/JAK2)” value was >6993 fold.
In the case of `COCCOc1cc(Nc2cc(NC(C)=O)ncc2-c2ccn(C3CC3)n2)nc(S(C)(=O)=O)c1` [Example M4, N-(5-(1-cyclopropyl-1H-pyrazol-3-yl)-4-((4-(2-methoxyethoxy)-6-(methylsulfonyl)pyridin-2-yl)amino)pyridin-2-yl)acetamide], the IC50 in assay [1] (NK92, Cellular assay) is 0.681 nM; in assay [2], 0.026 nM; in the assay with pSTAT5/GM-CSF it was > 10000 nM. Moreover, the “Selectivity fold (TYK2/JAK2)” value with pSTAT5/GM-CSF is listed as >14684 fold.
`CC(=O)Nc1cc(Nc2cc(OC(C)C)cc(S(C)(=O)=O)c2)c(-c2ccc(C(C)(C)O)cn2)cn1` [Example H24, N-(5-(2-hydroxypropan-2-yl)-4′-((3-isopropoxy-5-(methylsulfonyl)phenyl)amino)-[2,3′-bipyridin]-6′-yl)acetamide]: in assay [1] (Cellular assay), the “Selectivity fold (TYK2/JAK2)” value is reported as >1855 fold. Also, the IC50 in assay [1] (NK92, Cellular assay) is 5.39 nM; in assay [2] it was 0.034 nM; in the assay on pSTAT5/GM-CSF, > 10000 nM.
With `[2H]C([2H])([2H])Oc1cc(Nc2cc(NC(C)=O)ncc2-c2ccc(F)cn2)nc(S(C)(=O)=O)c1` [Example F24, N-(5-fluoro-4′-((4-(methoxy-d3)-6-(methylsulfonyl)pyridine-2-yl)amino)-[2,3′-bipyridin]-6′-yl)acetamide], the “Selectivity fold (TYK2/JAK2)” value in assay [1] (Cellular assay) is listed as >12195 fold. Further, the IC50 in assay [1] (NK92, Cellular assay) is 0.82 nM; in assay [2], 0.033 nM; with pSTAT5/GM-CSF, > 10000 nM.
The matching figures for `CC(=O)Nc1cc(Nc2cc(OCC3CC3)cc(S(C)(=O)=O)c2)c(-c2ccc(C(C)(C)O)cn2)cn1` [Example H22, N-(4′-((3-(cyclopropylmethoxy)-5-(methylsulfonyl)phenyl)amino)-5-(2-hydroxypropan-2-yl)-[2,3′-bipyridin]-6′-yl)acetamide]: >3623 fold, 2.76 nM, 0.038 nM and > 10000 nM.
`CC(=O)Nc1cc(Nc2cc(OC[C@H](C)O)cc(S(C)(=O)=O)n2)c(-c2ccc(C(F)(F)F)cn2)cn1` [Example F21, (S)-N-(4′-((4-(2-hydroxypropoxy)-6-(methylsulfonyl)pyridin-2-yl)amino)-5-(trifluoromethyl)-[2,3′-bipyridin]-6′-yl)acetamide]: the “Selectivity fold (TYK2/JAK2)” value in assay [1] (Cellular assay) is listed as >2814 fold. Moreover, the IC50 in assay [1] (NK92, Cellular assay) was 3.54 nM; in assay [2], 0.026 nM; with pSTAT5/GM-CSF, > 10000 nM.
In the case of `COc1cc(S(C)(=O)=O)nc(Nc2cc(NC(C)=O)ncc2-c2ccc(F)cn2)c1OC` [Example F23, N-(4′-((3,4-dimethoxy-6-(methylsulfonyl)pyridin-2-yl)amino)-5-fluoro-[2,3′-bipyridin]-6′-yl)acetamide], in assay [1] (Cellular assay), the “Selectivity fold (TYK2/JAK2)” value is >9345 fold. Also, the IC50 is 1.07 nM in assay [1] (NK92, Cellular assay); 0.02 nM in assay [2]; > 10000 nM in the assay with pSTAT5/GM-CSF.
The matching figures for `COc1ccc(-c2cnc(NC(C)=O)cc2Nc2cc(N3C[C@@H](C)O[C@@H](C)C3)cc(S(C)(=O)=O)n2)nn1` [Example A27, N-(4-((4-((2S,6R)-2,6-dimethylmorpholino)-6-(methylsulfonyl)pyridin-2-yl)amino)-5-(6-methoxypyridazin-3-yl)pyridin-2-yl)acetamide]: >4761 fold, 2.1 nM, 0.034 nM and > 10000 nM.
Turning to `CC(=O)Nc1cc(Nc2cc(C3COCCO3)cc(S(C)(=O)=O)n2)c(-c2ccc3c(n2)OCC(C)(C)O3)cn1` (racemic) [Example Q51, (S/R)—N-(4-((4-(1,4-dioxan-2-yl)-6-(methylsulfonyl)pyridin-2-yl)amino)-5-(2,2-dimethyl-2,3-dihydro-[1,4]dioxino[2,3-b]pyridin-6-yl)pyridin-2-yl)acetamide], the IC50 is 0.979 nM in assay [1] (Cellular assay), 0.034 nM in assay [2] and > 10000 nM with pSTAT5/GM-CSF. In the assay with pSTAT5/GM-CSF, the “Selectivity fold (TYK2/JAK2)” value is on record as >10214 fold.
For the molecule `[2H]C([2H])([2H])Oc1cc(Nc2cc(NC(C)=O)ncc2-c2ccc3c(n2)OCC(C)(C)O3)nc(S(C)(=O)=O)c1` [Example Q24, N-(5-(2,2-dimethyl-2,3-dihydro-[1,4]dioxino[2,3-b]pyridin-6-yl)-4-((4-(methoxy-d3)-6-(methylsulfonyl)pyridin-2-yl)amino)pyridin-2-yl)acetamide], the IC50 in assay [1] (NK92, Cellular assay) came out at 0.559 nM; in assay [2] it was 0.033 nM; in the assay with pSTAT5/GM-CSF, 620 nM. Moreover, the “Selectivity fold (TYK2/JAK2)” value in the assay on pSTAT5/GM-CSF amounted to 1109 fold.
Take `CCOc1cc(Nc2cc(NC(C)=O)ncc2-c2ccc(F)cn2)nc(S(C)(=O)=O)c1` [Example F19, N-(4′-((4-ethoxy-6-(methylsulfonyl)pyridin-2-yl)amino)-5-fluoro-[2,3′-bipyridin]-6′-yl)acetamide]: the “Selectivity fold (TYK2/JAK2)” value in assay [1] (Cellular assay) was >3267 fold. The IC50 in assay [1] (NK92, Cellular assay) was 3.06 nM; in assay [2], 0.036 nM; in the assay with pSTAT5/GM-CSF, > 10000 nM.
As to `CC(=O)Nc1cc(Nc2cc(O[C@H]3C[C@H](O)C3)cc(S(C)(=O)=O)c2)c(-c2ccn(C)n2)cn1` [Example J37, N-(4-((3-((trans)-3-hydroxycyclobutoxy)-5-(methylsulfonyl)phenyl)amino)-5-(1-methyl-1H-pyrazol-3-yl)pyridin-2-yl)acetamide], the IC50 was 19.1 nM in assay [1] (NK92, Cellular assay); 0.035 nM in assay [2]; > 10000 nM with pSTAT5/GM-CSF. Besides, the “Selectivity fold (TYK2/JAK2)” value with pSTAT5/GM-CSF is >523 fold.
Turning to `CC(=O)Nc1cc(Nc2cc(C)cc(S(C)(=O)=O)c2)c(-c2ccn(C)n2)cn1` [Example J8, N-(5-(1-methyl-1H-pyrazol-3-yl)-4-((3-methyl-5-(methylsulfonyl)phenyl)amino)pyridin-2-yl)acetamide], the IC50 is 7.67 nM in assay [1] (NK92, Cellular assay); 0.073 nM in assay [2]; > 10000 nM in the assay with pSTAT5/GM-CSF. Moreover, the “Selectivity fold (TYK2/JAK2)” value in the assay on pSTAT5/GM-CSF is >1303 fold.
On to `CC(=O)Nc1cc(Nc2cc(OC(C)C)cc(S(C)(=O)=O)n2)c(-c2ccn([C@H]3CCOC3)n2)cn1` [Example M33, (S)-N-(4-((4-isopropoxy-6-(methylsulfonyl)pyridin-2-yl)amino)-5-(1-(tetrahydrofuran-3-yl)-1H-pyrazol-3-yl)pyridin-2-yl)acetamide], for which the IC50 is 0.648 nM in assay [1] (NK92, Cellular assay); 0.027 nM in assay [2]; > 10000 nM with pSTAT5/GM-CSF. Moreover, the “Selectivity fold (TYK2/JAK2)” value with pSTAT5/GM-CSF was >15432 fold.
Turning to `COCc1ccc(-c2cnc(NC(C)=O)cc2Nc2cc(C)cc(S(C)(=O)=O)n2)nc1` [Example E2, N-(5-(methoxymethyl)-4′-((4-methyl-6-(methylsulfonyl)pyridin-2-yl)amino)-[2,3′-bipyridin]-6′-yl)acetamide], the “Selectivity fold (TYK2/JAK2)” value in assay [1] (Cellular assay) stood at 17867 fold. The IC50 in assay [1] (NK92, Cellular assay) came to 0.325 nM; in assay [2] it was 0.017 nM; in the assay with pSTAT5/GM-CSF, 5810 nM.
The matching figures for `COCc1ccc(-c2cnc(NC(C)=O)cc2Nc2cc(O[C@H]3C[C@H](O)C3)cc(S(C)(=O)=O)n2)nc1` [Example E8, N-(4′-((4-((1r,3r)-3-hydroxycyclobutoxy)-6-(methylsulfonyl)pyridin-2-yl)amino)-5-(methoxymethyl)-[2,3′-bipyridin]-6′-yl)acetamide]: >3496 fold, 2.86 nM, 0.034 nM and > 10000 nM.
On to `CC(=O)Nc1cc(Nc2cccc(S(C)(=O)=O)c2)c(-c2ncn(C)n2)cn1` [Example A10, N-(5-(1-methyl-1H-1,2,4-triazol-3-yl)-4-((3-(methylsulfonyl)phenyl)amino)pyridin-2-yl)acetamide], for which the IC50 in assay [1] (NK92, Cellular assay) is 3000 nM; in assay [2], 2.4 nM.
